Counter-ions that a name gives are not always drawn. Like-named read-outs stand apart in the source and are kept apart here. Bounds are passed on as bounds.

Holding throughout (format): cell-based
For assay [1], the system named is Streptococcus pneumoniae clinical isolates representing several serotypes. Briefly: MIC determination, Streptococcus pneumoniae panel of clinical isolates (Table 7). The settings on record: for MIC: Streptococcus pneumoniae.
In assay [2] the test system is Stenotrophomonas maltophilia (ATCC 13637). The assay can be described thus: MIC determination, microbroth dilution. The settings on record: ATCC13637; Stenotrophomonas maltophilia (ATCC 13637); read-out: MIC S.m. Background: Dilution methods test growth across graded concentrations, often in twofold steps.
Another assay relates to Yersinia pestis. Briefly: microbe, parasite or virus in culture. The settings on record: read-out: MIC Y.p.
Assay [3] has as its system Neisseria meningitides (ATCC 13077). The assay can be described thus: Disc diffusion assay. The settings on record: ATCC13077, 4 μg per disc, read-out: Zone of inhibition N.m. In general terms: Agar diffusion results depend on both activity and mobility in agar.
Another assay deals with Moraxella catarrhalis. Briefly: MIC determination (Table 6).
For assay [4], the system named is Proteus mirabilis (ATCC 25933). Briefly: MIC determination, microbroth dilution. The settings on record: ATCC25933.
For assay [5], the system named is Legionella pneumophila (ATCC 33153). Briefly: microbe, parasite or virus in culture. Particulars: ATCC33153, 72 h, read-out: Zone of inhibition L.p.
The subject of assay [6] is acinetobacter baumannii (ATCC 19606). The assay can be described thus: MIC determination, microbroth dilution. The settings on record: ATCC19606.
Assay [7] deals with live vaccine strain (LVS) of Francisella tularensis. Briefly: microbe, parasite or virus in culture. The settings on record: Francisella tularensis, read-out: MIC F.t.
For assay [8], the system named is Burkholderia cepacia (ATCC 25416). The assay can be described thus: MIC determination, microbroth dilution. The settings on record: Burkholderia cepacia.
In assay [9] the test system is Bacillus subtilis (ATCC 23857). Briefly: MIC determination, microbroth dilution. Particulars: ATCC23857; Bacillus subtilis (ATCC 23857); read-out: MIC B.s.

The term zone of inhibition denotes the extent of the growth-free halo in a diffusion test. Regarding `CN[C@@H]1[C@H](O)[C@H](NC)[C@H]2O[C@]3(O)[C@H](O[C@@H]2[C@H]1O)O[C@H](C)C[C@@]3(O)CNCc1ccc(F)cc1` [compound 2, 3′-(R)-3′-[(4-fluoro)benzylaminomethyl)]dihydrospectinomycin Trihydrochloride], the “susceptibility of strains with mono-resistance to penicillin, streptomycin, and erythromycin” value in assay [1] was “highly susceptible”. Also, the MIC in [1] (BAA1407, S. pneumoniae BAA-1407, Macrolide Resistant, read-out: MIC BAA-1407) came out at 6.3 µg/mL; in [1] (S. pneumoniae A66.1x, Drug Susceptible, read-out: MIC A66.1x), 1.6 µg/mL; in [1] (S. pneumoniae BHN97x, Drug Susceptible, read-out: MIC BHN97x), 1.6 µg/mL; in [1] (S. pneumoniae D39X, Drug Susceptible, read-out: MIC D39X), 1.6 µg/mL; in assay [1] (S. pneumoniae Daw7, PenG Resistant, read-out: MIC Daw7), 3.1 µg/mL; in [1] (S. pneumoniae Daw8, PenG Resistant, read-out: MIC Daw8), 3.1 µg/mL. For the same compound, the MIC in [1] (S. pneumoniae Daw9, PenG Resistant, read-out: MIC Daw9) is 3.1 µg/mL; in assay [1] (S. pneumoniae Daw62, PenG Resistant, read-out: MIC Daw62), 3.1 µg/mL; in assay [1] (S. pneumoniae Daw64, PenG Resistant, read-out: MIC Daw64), 3.1 µg/mL; in assay [1] (S. pneumoniae OVA6, Macrolide Resistant, read-out: MIC OVA6), 3.1 µg/mL; in assay [1] (S. pneumoniae T4X, Drug Susceptible, read-out: MIC T4X), 3.1 µg/mL; in assay [2] it was 25 µg/mL. In addition, the MIC is 100 µg/mL with Yersinia pestis; 3.1 µg/mL in the assay on Moraxella catarrhalis; above 200 µg/mL in [4]; above 200 µg/mL in assay [6]; 1.6 to 3.1 µg/mL in assay [7]; above 200 µg/mL in [8] (ATCC25416, read-out: MIC B.c., Burkholderia cepacia (ATCC 25416)). Also, the MIC in assay [8] (ATCC25416, read-out: MIC B.c., Burkholderia cepacia, Table 6) was above 200 µg/mL; in [9], 3.1 µg/mL. In addition, the zone of inhibition at 4 µg/disc in assay [3] was in the range of 19 to 20 mm; in assay [5], 32 to 49 mm.

The values are drawn from patent US10266544B2, “Aryl substituted aminomethyl spectinomycin analogs as antibacterial agents” (ST. JUDE CHILDREN'S RESEARCH HOSPITAL, INC., priority 2013, dated 2019).
